Ends that are not written are not given here. Peptide text beside a SMILES is read from it. * marks the point of attachment. Cbz = O=C(OCc1ccccc1)*
Legend:
FGFR3 = experiment: Western blotting of FGFR3 in primary chondrocytes; format: cell-based, mouse
Method: Cell lysates were separated by SDS-PAGE. The separated proteins were immunostained with anti-FGFR3 antibody (Cell Signaling, #4574), anti-phosphorylated MAPK antibody (Cell Signaling, #9109) or anti-β-actin antibody (Cell Signaling, #49776).
The investigation of the effects of the inhibitors was performed as follows. A total of 2.5×10^5 primary chondrocytes were plated in each well of a six-well plate, and were cultured in the presence or absence of 1 μM lovastatin for 2 days. Then, the culture was supplemented with […] MG132, 100 nM Baf A1 or vehicle. Two hours later, the culture was further supplemented with 50 ng/ml FGF9 (PeproTech) and incubated at 4° C. for 2 hours. Then cells were collected and subjected to analysis by Western blotting.

TD-iPSCs [1] = experiment: Chondrogenic differentiation of TD-iPSCs, cartilaginous extracellular matrix by safranin O staining; format: cell-based, human; details: day 42; for chondrogenic differentiation / cartilage formation of TD-iPSCs (safranin O): statin 1 μM in cartilage differentiation medium; for chondrogenic differentiation of TD-iPSCs (safranin O): TD714-3, CNP 100 nM, NF449 25 μM, FGFR inhibitor 1 μM, IGF1R inhibitor 1 nM
Method: (§1) The iPS cell lines were transferred to Matrigel (Invitrogen)-coated dishes, then Essential 8 medium (Life Technologies) supplemented with 50 units/ml penicillin and 50 μg/ml streptomycin was added, and the cell lines were cultured for undifferentiated maintenance under the feeder-free conditions. The iPS cell lines formed colonies that consisted of 1 to 2×10^5 cells 10 to 15 days after seeding, and the medium was changed to mesodermal differentiation medium (DMEM/F12 supplemented with 10 ng/ml Wnt3A (R&D), 10 ng/ml activin A (R&D), 1% insulin-transferrin-sodium selenite (Invitrogen), 1% fetal calf serum, 50 units/ml penicillin and 50 μg/ml streptomycin) (day zero of differentiation). Three days after (day 3 of differentiation), the medium was changed to cartilage differentiation medium (DMEM/F12 supplemented with 50 μg/ml ascorbic acid, 10 ng/ml BMP2 (Osteopharma), 10 ng/ml TGFβ (PeproTech), 10 ng/ml GDF5, 1% insulin-transferrin-sodium selenite, 1% FBS, 50 units/ml penicillin and 50 μg/ml streptomycin). Eleven days after (day 14 of differentiation), the cells were physically separated from the dishes, and transferred to a suspension culture in the same medium. Fourteen days after transfer (day 28 of differentiation) and 28 days after transfer (day 42 of differentiation), the cells formed particles and the particles were harvested for analyses. The culture medium was changed every 2 to 7 days during differentiation.
FGFR3 neutralizing antibody was added to the medium during the chondrogenic differentiation of TD-iPSCs to inhibit FGFR3 activity, and chondrocyte formation was assessed. The FGFR3 neutralizing antibody (Santa Cruz (sc-13121)) was added as 1 μl of an antibody solution (200 ng/ml) in 1 ml of cartilage differentiation medium. As a control, IgG (Cell Signaling, #27295) was used. The chondrogenic differentiation was performed in the same manner as in Example 2, and the cartilaginous particles were assessed on days 28 and 42 of differentiation.
(§2) Several drugs that had previously been reported to affect FGFR3 signaling and/or chondrocyte differentiation (CNP, NF449, a FGFR inhibitor, and an IGF1R inhibitor) were selected, and their ability to rescue TD-iPSCs from failure of chondrogenic differentiation was investigated. The stock CNP (Sigma, N8768), NF449 (Abcam, ab120415), a FGFR inhibitor (PD 173047, Cayman) and an IGF1R inhibitor (IGF-1R inhibitor, PPP. Calbiochem, 407247) solutions were prepared at a concentration of 100 μM, 50 mM, 1 mM, 1 μM, respectively. The stock solutions were added to cartilage differentiation medium at the final concentrations of CNP, NF449, the FGFR inhibitor and the IGF1R inhibitor of 100 nM, 25 μM 1 μM, and 1 nM, respectively (day 3 of differentiation). TD-iPSCs were chondrogenically differentiated in the same manner as in Example 2, and the cartilaginous particles were assessed on days 28 and 42 of differentiation. As a control, an equal volume of water or DMSO was added to the medium. mRNA expression analysis was performed in the same manner as in Example 1.
To investigate whether lovastatin rescues TD-iPSCs from failure of chondrogenic differentiation, evaluation was performed in the same manner as in Example 4. A stock lovastatin (TCI, L0214) solution was prepared by dissolving it in DMSO at a concentration of 10 mM, and the solution was added to cartilage differentiation medium at a final concentration of 1 μM.

TD-iPSCs [2] = experiment: Real-time RT-PCR expression analysis of chondrocyte and fibroblast marker genes in chondrogenically differentiated TD-iPSCs; format: cell-based, human; details: TD714-3; CNP 100 nM, IGF1R inhibitor 1 nM; day 28
Method: mRNAs were isolated from the cell lines using RNeasy Mini Kit (Qiagen). A total of 500 ng of the total RNA was used as a template for cDNA synthesis by reverse transcription using ReverTra Ace system (TOYOBO). Standard curves for quantitative PCR (real-time PCR) were established and used for analyses. Real-time PCR analysis was performed in Step One system (ABI) using KAPA SYBR FAST qPCR kit Master Mix ABI Prism (KAPA BIOSYSTEMS).
as §1, §2

[3] = test system: TD-iPSC-derived cartilaginous particles; experiment: Incorporation of BrdU by TD-iPSC-derived cartilaginous particles; format: cell-based, human; details: presence vs absence of statin, 1 μM; day 28
FGFR3^Ach mice = experiment: Bone growth of ACH model mice treated with statins, X-ray imaging; format: in vivo, mouse; details: day 3 to day 14, 15 days old
Method: The FGFR3^Ach mice were crossed with wild-type mice (C57BL/6 background). A rosuvastatin solution at a dose of 1.0 mg/kg was intraperitoneally administered to the crossed mice 6 times per week from 3 days after birth until day 14. The mice were euthanized on day 15, and the bodies and the bone formation were examined by X-ray imaging (Faxitron DX-50). Genomic DNA was extracted from the toes of each mouse and subjected to genotype analysis. Also, a lovastatin solution at a dose of 0.4 mg/kg was intraperitoneally administered to the crossed mice 6 times per week from day 3 after birth until day 28, and the mice were euthanized on day 29 for examination of the bodies and the bone formation in the same manner as above.

[4] = rosuvastatin 1.0 mg/kg intraperitoneally 6 times per week

## CC(C)C[C@@H](C=O)NC(=O)[C@H](CC(C)C)NC(=O)[C@H](CC(C)C)NC(=O)OCc1ccccc1 [MG132] (Cbz-Leu-Leu-Leu-aldehyde)
FGFR3; FGFR3^Ach chondrocytes cultured in the presence of 1 μM lovastatin, 10 mM MG132
  amount of FGFR3: increased the amount of FGFR3

## CC[C@H](C)C(=O)O[C@H]1CCC=C2C=C[C@H](C)[C@H](CC[C@@H]3C[C@@H](O)CC(=O)O3)[C@H]21 [mevastatin]
TD-iPSCs [1]
  chondrogenic differentiation / cartilage formation of TD-iPSCs (safranin O): rescued abnormal cartilage formation in the TD-iPSC-derived chondrocytes

## COc1cc([C@@H]2c3cc4c(cc3[C@H](O)[C@H]3COC(=O)[C@@H]23)OCO4)cc(OC)c1OC [IGF1R inhibitor]
TD-iPSCs [1]
  chondrogenic differentiation of TD-iPSCs (safranin O): rescued TD-iPSCs from failure of chondrogenic differentiation
TD-iPSCs [2]
  expression of chondrocyte marker genes (SOX9, COL2, AGGRECAN): increased the expression of chondrocyte marker genes
  expression of fibroblast marker genes (COL1A1, COL1A2): decreased the expression of fibroblast marker genes

## O=C(Nc1cc(C(=O)Nc2ccc(S(=O)(=O)O)cc2S(=O)(=O)O)cc(C(=O)Nc2ccc(S(=O)(=O)O)cc2S(=O)(=O)O)c1)Nc1cc(C(=O)Nc2ccc(S(=O)(=O)O)cc2S(=O)(=O)O)cc(C(=O)Nc2ccc(S(=O)(=O)O)cc2S(=O)(=O)O)c1 [NF449]
TD-iPSCs [1]
  chondrogenic differentiation of TD-iPSCs (safranin O): had no effect on the chondrogenic differentiation of TD-iPSCs

## CC(C)c1c(C(=O)Nc2ccccc2)c(-c2ccccc2)c(-c2ccc(F)cc2)n1CC[C@@H](O)C[C@@H](O)CC(=O)O [atorvastatin]
TD-iPSCs [1]
  chondrogenic differentiation / cartilage formation of TD-iPSCs (safranin O): rescued abnormal cartilage formation in the TD-iPSC-derived chondrocytes

## CO/C1=C\C(C)=C\[C@@H](C)[C@@H](O)[C@@H](C)C/C(C)=C/C=C/[C@H](OC)[C@@H]([C@@H](C)[C@@H](O)[C@H](C)[C@@]2(O)C[C@@H](O)[C@H](C)[C@@H](C(C)C)O2)OC1=O [Bafilomycin A1]
FGFR3; FGFR3^Ach chondrocytes in the presence of 1 μM lovastatin, 100 nM Baf A1
  expression of FGFR3: slightly increased

## CC(C)c1nc(N(C)S(C)(=O)=O)nc(-c2ccc(F)cc2)c1/C=C/[C@@H](O)C[C@@H](O)CC(=O)O [rosuvastatin]
TD-iPSCs [1]
  chondrogenic differentiation / cartilage formation of TD-iPSCs (safranin O): rescued abnormal cartilage formation in the TD-iPSC-derived chondrocytes
[3]
  number of BrdU-positive cells: significantly increased the number of BrdU-positive cells
FGFR3^Ach mice; [4]
  anteroposterior lengths of the skulls (Cranial A-P): increased
  lengths of the femurs (Femur): increased
  lengths of the tibiae (Tibia): increased
  lengths of the ulnas (Ulna): increased
FGFR3^Ach mice; rosuvastatin 1.0 mg/kg intraperitoneally, t-test
  differences in the lengths vs wild-type mice receiving vehicle: no significant differences

## c-type natriuretic peptide (GLSKGCFGLKLDRIGSMSGLGC; ends and bridges not checked; cysteine pairing not given here; UniProt P23582 105-126, looked up) [CNP, c-type natriuretic peptide (Sigma, N8768)]
TD-iPSCs [1]
  chondrogenic differentiation of TD-iPSCs (safranin O): rescued TD-iPSCs from failure of chondrogenic differentiation
TD-iPSCs [2]
  expression of chondrocyte marker genes (SOX9, COL2, AGGRECAN): increased the expression of chondrocyte marker genes
  expression of fibroblast marker genes (COL1A1, COL1A2): decreased the expression of fibroblast marker genes

## CCN(CC)CCCCNc1ncc2cc(-c3cc(OC)cc(OC)c3)c(NC(=O)NC(C)(C)C)nc2n1 [FGFR inhibitor, PD 173047]
TD-iPSCs [1]
  chondrogenic differentiation of TD-iPSCs (safranin O): had no effect on the chondrogenic differentiation of TD-iPSCs
